Measured values reported in patent US10085973B2, “Pharmaceutical composition containing a compound having a thrombopoietin receptor agonistic activity” (Shionogi & Co., Ltd., priority 2012, dated 2018).

What was measured:
[1] = test system: patients with thrombocytopenia caused by chronic liver disease; assay: Example 2 Test Example 1: repeated oral administration before percutaneous liver ablation with discontinuation criteria; assay type: in vivo, human
Text: (§1) To patients with thrombocytopenia caused by chronic liver disease, lusutrombopag as a pretreatment of percutaneous liver ablation was orally administered repeatedly for 7 days while applying the discontinuation criteria designed in Example 1 and profile of the platelet count was studied. In the present Example, the term “ablation” refers to radiofrequency ablation.
(§2) Patients with thrombocytopenia caused by chronic liver disease who are scheduled to undergo percutaneous liver ablation.
(§3) Patients who meet the following inclusion criteria are included. • 1) Age: 20 years of age or older (at the time of signing informed consent); • 2) Patients who themselves can give a consent in writing; • 3) Patients who have a complication or a history of chronic liver disease caused by hepatitis B or C virus; • 4) Patients who are scheduled to undergo percutaneous liver ablation for primary liver cancer; • 5) Patients having a platelet count which is less than 5×10^4/μL at the time of screening; • 6) Patients whose ECOG* Performance Status of Grade is 0 to 1; and • 7) Patients who can practice contraception from entry to the end of observation. (Exclusion Criteria)
(§4) Patients who meet the following criteria are excluded. • 1) Patients who underwent splenectomy; • 2) Patients who have a complication presenting thrombocytopenia; • 3) Patients who underwent liver transplant; • 4) Degree of hepatic disorder classified as the Child-Pugh class of C; • 5) Hepatic encephalopathy uncontrolled by medicaments; • 6) Ascites uncontrolled by medicaments; • 7) Patients who have a complication of malignant tumor other than primary liver cancer; • 8) Patients who have a complication or a history of thrombosis or thrombotic disease; • 9) Patients who have absence of hepatopetal blood flow in the portal vein; • 10) Patients who have a complication or a history of disease with hemorrhage risk; • 11) Patients who received a therapeutic agent that affects a platelet count or underwent a therapy that affects a platelet count within 90 days before registry; • 12) Patients who received a blood product (excluding erythrocyte product) within 14 days before registry; or • 13) Patients who previously received a TPO receptor agonist. (Drugs which are Prohibited, Limited or Allowed for Coadministration During the Trial)
In each allocated group, lusutrombopag is orally administered repeatedly once daily for 7 days. After patients are monitored on day 8, they undergo percutaneous liver ablation before day 13 from initiation of administration. They are monitored until about day 30 after initiation of administration.
(§5) Lusutrombopag is orally administered repeatedly once daily for 7 days. On day 1, the drug is administered at the time of visit. On day 3 to day 7 (day 5 to day 7 for the group of 2.0 mg administration), the drug shall be administered after checking the platelet count measured on the same day. Administration of lusutrombopag shall be discontinued when the platelet count reaches to the following criteria (administration discontinuating criteria) in a clinical examination after administration of the investigational drug.
(§6) Administration discontinuating criteria: when the platelet count has increased by 2×10^4/μL or more from the platelet count before initiation of administration and the platelet count has reached to 5×10^4/μL or higher.
(§7) As the platelet count before initiation of administration, the platelet count determined within 7 days before initiation of administration was used.
Daily dose was any one of 2.0, 2.5, 3.0 and 4.0 mg of lusutrombopag.
Proportion of patients who have a platelet count on day 8 after initiation of administration that increased by 2×10^4/μL or more from the platelet count before initiation of administration and reached to 5×10^4/μL or higher. […]

[2] = test system: patients with thrombocytopenia caused by chronic liver disease; assay: Example 2 Test Example 2: placebo-controlled repeated oral administration before percutaneous liver ablation with discontinuation criteria; assay type: in vivo, human
Text: as §1, §2
as §3, with “of” for “of signing informed”, “with thrombocytopenia caused by” for “who have a complication or a history of”, “disease;” for “disease caused by hepatitis B or C virus;”
as §4
In each allocated group, lusutrombopag is orally administered repeatedly once daily for 7 days. After patients are monitored on day 8, they undergo percutaneous liver ablation before day 14 from initiation of administration. They are monitored until about day 30 after initiation of administration.
as §5, with “day” for “day 3 to day 7 (day”, “7,” for “7 for the group of 2.0 mg administration),”
as §6, §7
Daily dose was any one of 2.0, 3.0 and 4.0 mg of lusutrombopag.
Proportion of patients who have a platelet count on day 8 after initiation of administration that increased by 2×10^4/μL or more from a platelet count before initiation of administration and reached to 5×10^4/μL or higher. […]

**Q.** Which “Endpoint 2: Number of patients who had a platelet count during the trial that increased by 2 × 10^4/μL or more from the count before initiation of administration and reached to 5 × 10^4/μL or higher” value ([1]; 2.0 mg once daily, n = 12) does the source give for CCCCCCO[C@@H](C)c1cccc(-c2csc(NC(=O)c3cc(Cl)c(/C=C(\C)C(=O)O)c(Cl)c3)n2)c1OC [lusutrombopag, (E)-3-[2,6-dichloro-4-[4-[3-[(S)-1-hexyloxyethyl]-2-methoxyphenyl]-thiazol-2-ylcarbamoyl]-phenyl]-2-methylacrylic acid] here?
**A.** 9

**Q.** And the “Number of patients to whom administration was discontinued according to the administration discontinuating criteria” value ([1]; 2.0 mg once daily, n = 12)?
**A.** 3

**Q.** And the “Number of patients who received platelet transfusion” value ([1]; 2.0 mg once daily, n = 12)?
**A.** 2

**Q.** And the “Endpoint 2: Number of patients who had a platelet count during the trial that increased by 2 × 10^4/μL or more from the count before initiation of administration and reached to 5 × 10^4/μL or higher” value ([1]; 2.5 mg once daily, n = 6)?
**A.** 4

**Q.** And the “Number of patients to whom administration was discontinued according to the administration discontinuating criteria” value ([1]; 2.5 mg once daily, n = 6)?
**A.** 3

**Q.** What about the “Number of patients who received platelet transfusion” value ([1]; 2.5 mg once daily, n = 6) of the same compound?
**A.** 1

**Q.** And the “Endpoint 2: Number of patients who had a platelet count during the trial that increased by 2 × 10^4/μL or more from the count before initiation of administration and reached to 5 × 10^4/μL or higher” value ([1]; 3.0 mg once daily, n = 7)?
**A.** 6

**Q.** And the “Number of patients to whom administration was discontinued according to the administration discontinuating criteria” value ([1]; 3.0 mg once daily, n = 7)?
**A.** 0

**Q.** What about the “Number of patients who received platelet transfusion” value ([1]; 3.0 mg once daily, n = 7) of the same compound?
**A.** 1

**Q.** What about the “Endpoint 2: Number of patients who had a platelet count during the trial that increased by 2 × 10^4/μL or more from the count before initiation of administration and reached to 5 × 10^4/μL or higher” value ([1]; 4.0 mg once daily, n = 8) of the same compound?
**A.** 7

**Q.** And the “Number of patients to whom administration was discontinued according to the administration discontinuating criteria” value ([1]; 4.0 mg once daily, n = 8)?
**A.** 2

**Q.** And the “Number of patients who received platelet transfusion” value ([1]; 4.0 mg once daily, n = 8)?
**A.** 1

**Q.** And the “efficacy at each dose” value ([1]; all doses (2.0, 2.5, 3.0 and 4.0 mg))?
**A.** all doses showed the efficacy

**Q.** And the “patients who had a platelet count of higher than 20×10^4/μL during the observation period” value ([1]; daily dose 2.0, 2.5, 3.0 and 4.0 mg)?
**A.** None

**Q.** And the “maximum platelet count of patients to whom administration was discontinued according to the criteria” value ([1]; groups of daily dose 2 mg, 2.5 mg and 4.0 mg, vs patients who received the drug for 7 days)?
**A.** lower than that of patients who received the drug for 7 days

**Q.** What about the “Endpoint 2: Number of patients who had a platelet count during the trial that increased by 2 × 10^4/μL or more from the count before initiation of administration and reached to 5 × 10^4/μL or higher” value ([2]; 2.0 mg once daily, n = 15) of the same compound?
**A.** 10

**Q.** What about the “Number of patients to whom administration was discontinued according to the administration discontinuating criteria” value ([2]; 2.0 mg once daily, n = 15) of the same compound?
**A.** 3

**Q.** And the “Number of patients who received platelet transfusion” value ([2]; 2.0 mg once daily, n = 15)?
**A.** 3

**Q.** What about the “Endpoint 2: Number of patients who had a platelet count during the trial that increased by 2 × 10^4/μL or more from the count before initiation of administration and reached to 5 × 10^4/μL or higher” value ([2]; 3.0 mg once daily, n = 16) of the same compound?
**A.** 11

**Q.** And the “Number of patients to whom administration was discontinued according to the administration discontinuating criteria” value ([2]; 3.0 mg once daily, n = 16)?
**A.** 3

**Q.** What about the “Number of patients who received platelet transfusion” value ([2]; 3.0 mg once daily, n = 16) of the same compound?
**A.** 3

**Q.** What about the “Endpoint 2: Number of patients who had a platelet count during the trial that increased by 2 × 10^4/μL or more from the count before initiation of administration and reached to 5 × 10^4/μL or higher” value ([2]; 4.0 mg once daily, n = 15) of the same compound?
**A.** 12

**Q.** And the “Number of patients to whom administration was discontinued according to the administration discontinuating criteria” value ([2]; 4.0 mg once daily, n = 15)?
**A.** 5

**Q.** What about the “Number of patients who received platelet transfusion” value ([2]; 4.0 mg once daily, n = 15) of the same compound?
**A.** 4

**Q.** What about the “efficacy at each dose” value ([2]; all doses (2.0, 3.0 and 4.0 mg)) of the same compound?
**A.** all doses showed the efficacy

**Q.** What about the “patients who had a platelet count of higher than 20×10^4/μL during the observation period” value ([2]; daily dose 2.0, 3.0 and 4.0 mg) of the same compound?
**A.** None
